26 compounds from patent US20240309003A1, “HETEROCYCLIC COMPOUNDS AS TRIGGERING RECEPTOR EXPRESSED ON MYELOID CELLS 2 AGONISTS AND METHODS OF USE” (Vigil Neuroscience, Inc., priority 2021, published 2024) can be followed below.

SMILES strings stand for the structures.

The assay addresses T1, human TREM2 (Homo sapiens, UniProt Q9NZC2).
T1 construct: expressed in transfected cells; host or cells: HEK293T
Kind of assay: TREM2 agonist potency by cellular phosphorylation of Syk (AlphaLisa) in HEK293T-hTREM2 cells. It is filed as cell-based. The protocol:
In Vitro Measurement of Triggering Receptor Expressed on Myeloid Cells 2 Activity Using Cellular Phosphorylation of Spleen Tyrosine Kinase (“Syk”) Assays
Measurement of TREM2 agonist potency was done using a HEK cell line expressing human TREM2 and DAP12 (HEK293T-hTREM2 cells). Binding of small molecules to, and activation of, TREM2 increases the phosphorylation of Syk. The resultant levels of Syk phosphorylation are measured using a commercial AlphaLisa reagent kit. To perform the assay, HEK-hTREM2 cells were plated at 14,000 cells per well in a 384 well plate, in 25 μL of complete growth media and incubated at 37° C., 5% CO2 for 20-24 hours.
Prior to the assay, test compounds were diluted in the 384 well plates in assay buffer and allowed to equilibrate for 30 minutes. Growth media was removed from cell plates by inversion on blotting paper, and 25 μL of test articles in assay buffer was added to cells. Cells were incubated for 45 minutes at room temperature. After 45 minutes, assay buffer was removed and 10 μL of lysis buffer was added. Plates were shaken for 20 minutes at 350 RPM at room temperature. After complete lysis, AlphaLisa reagents were added to the lysate, and fluourescence intensity was measured using a Perkin Elmer Envision plate reader. Intensities were used to generate a standard curve, and % activation was calculated. Curve fitting was performed using Prism v9 software, log(agonist) vs response-variable slope (four parameters), and EC50s were calculated from the curve fit.
This assay may be used to test any of the compounds described herein to assess and characterize a compound's ability to act as an agonist of TREM2.
On the technique in general: In Alpha technology, singlet oxygen from a donor bead excites a nearby acceptor bead.

The mark [1] stands for this setting: HEK293 cells expressing human TREM2 and DAP12, Table D-2.
The mark [2] stands for this setting: HEK293 cells expressing human TREM2 and DAP12, Table D.

T1 sequence (Q9NZC2 19-230): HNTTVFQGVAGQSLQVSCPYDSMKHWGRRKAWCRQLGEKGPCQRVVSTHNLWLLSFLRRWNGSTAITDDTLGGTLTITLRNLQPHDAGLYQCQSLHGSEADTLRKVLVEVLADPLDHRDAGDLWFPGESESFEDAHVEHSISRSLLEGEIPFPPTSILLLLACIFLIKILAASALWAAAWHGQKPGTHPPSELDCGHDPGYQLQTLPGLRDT
T1 sequence (O43914 22-113 partner): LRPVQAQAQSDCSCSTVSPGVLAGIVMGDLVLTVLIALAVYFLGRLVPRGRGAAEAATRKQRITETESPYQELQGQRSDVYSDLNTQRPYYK

Under setting [1], `Cc1nc2nc([C@H]3CCO[C@@H](c4cnn(C5CC5)c4)C3)nc(-c3ccc(OC(F)(F)F)cc3F)c2nc1C` [Example I-1313, 2-((2R,4S)-2-(1-cyclopropyl-1H-pyrazol-4-yl)tetrahydro-2H-pyran-4-yl)-4-(2-fluoro-4-(trifluoromethoxy)phenyl)-6,7-dimethylpteridine] gave an EC50 of 50 to 500 nM.

`Cc1ccc2c(-c3ccc(Cl)c(F)c3F)nc([C@H]3CCO[C@@H](c4cnn(C5CC5)c4)C3)nc2n1` [Example 218, 4-(4-chloro-2,3-difluorophenyl)-2-((2R,4S)-2-(1-cyclopropyl-1H-pyrazol-4-yl)tetrahydro-2H-pyran-4-yl)-7-methylpyrido[2,3-d]pyrimidine] gave a concentration for a half-maximal effect (EC50) under setting [2] below 50 nM.

In the case of `Cc1nc2nc(N3C[C@@H](C)O[C@@H](c4cnn(CCO)c4)C3)nc(-c3ccc(Cl)cc3F)c2nc1C` [Example I-1686, 2-(4-((2S,6R)-4-(4-(4-chloro-2-fluorophenyl)-6,7-dimethylpteridin-2-yl)-6-methylmorpholin-2-yl)-1H-pyrazol-1-yl)ethan-1-ol], under setting [1], the 50% effective concentration (EC50) was below 50 nM.

Take `Cc1cnc2c(-c3ccc(Cl)cc3F)nc(N3C[C@@H](C)O[C@@H](c4cnn(C5CC5)c4)C3)nc2n1` [Example 117, (2S,6R)-4-(4-(4-chloro-2-fluorophenyl)-7-methylpteridin-2-yl)-2-(1-cyclopropyl-1H-pyrazol-4-yl)-6-methylmorpholine]: the EC50 under setting [2] was below 50 nM.

`Cc1nc2nc(C3CCS(=O)(=O)N(c4cnn(C5CC5)c4)C3)nc(-c3ccc(Cl)cc3F)c2nc1C` (racemic) [Example I-1733, 4-[4-(4-chloro-2-fluoro-phenyl)-6,7-dimethyl-pteridin-2-yl]-2-(1-cyclopropylpyrazol-4-yl)thiazinane 1,1-dioxide] had a 50% effective concentration (EC50) under setting [1] of 50 to 500 nM.

`Cc1nc2nc(N3C[C@@H](C)O[C@@H](c4cnn(C5CC5)c4)C3)nc(-c3ccnn3C)c2nc1C` [Example 241, (2S,6R)-2-(1-cyclopropyl-1H-pyrazol-4-yl)-4-(6,7-dimethyl-4-(1-methyl-1H-pyrazol-5-yl)pteridin-2-yl)-6-methylmorpholine] returned a concentration giving a half-maximal response (EC50) under setting [2] of 50 to 500 nM.

As to `Cc1nc2nc(N3CCOC(c4cc[nH]c(=O)c4)C3)nc(-c3ccc(C(F)(F)F)nc3)c2nc1C` (centres unmarked) [Example 194, 4-(4-(6,7-dimethyl-4-(6-(trifluoromethyl)pyridin-3-yl)pteridin-2-yl)morpholin-2-yl)pyridin-2(1H)-one], under setting [2], the half-maximal effective concentration (EC50) is below 50 nM.

Take `Cc1cc([C@H]2CN(c3nc(-c4ccc(Cl)cc4F)c4nc(C)c(C)nc4n3)CCO2)no1` [Example I-1510, (2R)-4-[4-(4-chloro-2-fluoro-phenyl)-6,7-dimethyl-pteridin-2-yl]-2-(5-methylisoxazol-3-yl)morpholine]: the concentration giving a half-maximal response (EC50) under setting [1] was 50 to 500 nM.

Under setting [1], `Cc1cc2c(-c3ccc(F)cc3F)nc(N3C[C@@H](C)O[C@@H](c4cn(C)cn4)C3)nc2nc1C` [Example I-1260, (2R,6R)-4-[4-(2,4-difluorophenyl)-6,7-dimethyl-pyrido[2,3-d]pyrimidin-2-yl]-2-methyl-6-(1-methylimidazol-4-yl)morpholine; formic acid] registered an EC50 of 500 to 3000 nM.

`Cc1nc2nc(N3CCCO[C@H](c4cnn(C5CC5)c4)C3)nc(-c3ccc(F)cc3F)c2nc1C` (stereo in doubt) [Example I-1144, 2-(1-cyclopropyl-1H-pyrazol-4-yl)-4-(4-(2,4-difluorophenyl)-6,7-dimethylpteridin-2-yl)-1,4-oxazepane] displayed a half-maximal effective concentration (EC50) under setting [1] of 500 to 3000 nM.

The compound `Cc1cc([C@H]2C[C@@H](c3nc(-c4ccc(Cl)c(F)c4F)c4ncc(C)nc4n3)CCO2)ccn1` (racemic) [Example 89, 4-(4-chloro-2,3-difluorophenyl)-7-methyl-2-(2-(2-methylpyridin-4-yl)tetrahydro-2H-pyran-4-yl)pteridine] came in with a 50% effective concentration (EC50) under setting [2] below 50 nM.

On to `Cc1nc2nc([C@@H]3CCO[C@@H](c4cnc(C5CC5)o4)C3)nc(-c3ccc(F)cc3F)c2nc1C` (single isomer, unassigned) [Example I-1696], for which, under setting [1], the half-maximal effective concentration (EC50) lay in the range of 500 to 3000 nM.

`Cc1nc2nc([C@@H]3C[C@@H](C)O[C@@H](c4cnn(C5CC5)c4)C3)nc(-c3cc(F)c(F)cc3F)c2nc1C` [Example 158, 2-((2R,4R,6R)-2-(1-cyclopropyl-1H-pyrazol-4-yl)-6-methyltetrahydro-2H-pyran-4-yl)-6,7-dimethyl-4-(2,4,5-trifluorophenyl)pteridine] returned a concentration giving a half-maximal response (EC50) under setting [2] of 50 to 500 nM.

Regarding `[2H]C1([2H])C[C@@H](c2nc(-c3ccc(Cl)cc3F)c3nc(C)c(C)nc3n2)C[C@@]([2H])(c2cnn(C3CC3)c2)O1` [Example 193, 4-(4-chloro-2-fluorophenyl)-2-((2S,4R)-2-(1-cyclopropyl-1H-pyrazol-4-yl)tetrahydro-2H-pyran-4-yl-2,6,6-d3)-6,7-dimethylpteridine], the half-maximal effective concentration (EC50) under setting [2] lay in the range of 50 to 500 nM.

Regarding `COCCn1cc([C@H]2C[C@@H](c3nc(-c4ccc(F)cc4F)c4nc(C)c(C)nc4n3)CCO2)cn1` (stereo in doubt) [Example I-1658, 4-(2,4-difluorophenyl)-2-(2-(1-(2-methoxyethyl)-1H-pyrazol-4-yl)tetrahydro-2H-pyran-4-yl)-6,7-dimethylpteridine], the EC50 under setting [1] was in the range of 50 to 500 nM.

Under setting [2], `COc1ccc([C@H]2C[C@@H](c3nc(C45CC(C(F)(F)F)(C4)C5)c4nc(C)c(C)nc4n3)CCO2)cn1` [Example 141, 2-((2R,4S)-2-(6-methoxypyridin-3-yl)tetrahydro-2H-pyran-4-yl)-6,7-dimethyl-4-(3-(trifluoromethyl)bicyclo[1.1.1]pentan-1-yl)pteridine] had a concentration for a half-maximal effect (EC50) below 50 nM.

In the case of `[2H]C([2H])([2H])c1nc2nc([C@H]3CCO[C@@H](c4cnn(C([2H])([2H])[2H])c4)C3)nc(-c3ccc(C)cc3)c2nc1C([2H])([2H])[2H]` [Example 173, 6,7-bis(methyl-d3)-2-((2R,4S)-2-(1-(methyl-d3)-1H-pyrazol-4-yl)tetrahydro-2H-pyran-4-yl)-4-(p-tolyl)pteridine], the EC50 under setting [2] lay in the range of 50 to 500 nM.

`Cc1nc2nc(N3C[C@@H](C)O[C@@H](c4cnn(C5CC5)c4)C3)nc(-c3cc(F)c(C(F)(F)F)cc3F)c2nc1C` [Example I-1538, (2S,6R)-2-(1-cyclopropylpyrazol-4-yl)-4-[4-[2,5-difluoro-4-(trifluoromethyl)phenyl]-6,7-dimethyl-pteridin-2-yl]-6-methyl-morpholine]: under setting [1], the concentration giving a half-maximal response (EC50) is below 50 nM.

As for `Cc1cc2c(-c3ccc(F)cc3F)cc([C@H]3CCO[C@@H](c4cnn(C5CC5)c4)C3)nc2nc1C` [Example 232], the 50% effective concentration (EC50) under setting [2] is below 50 nM.

For the compound `Cc1nc2nc(N3C[C@@H](C)O[C@@H](c4cnn(C5CC5)c4)C3)cc(C#CC3CC3)c2nc1C` [Example I-1104, (2S,6R)-4-[8-(2-cyclopropylethynyl)-2,3-dimethyl-pyrido[2,3-b]pyrazin-6-yl]-2-(1-cyclopropylpyrazol-4-yl)-6-methyl-morpholine], under setting [1], the concentration giving a half-maximal response (EC50) fell in the range of 500 to 3000 nM.

As for `Cc1nc2nc([C@H]3CCO[C@@H](c4cnn(C5CC5)c4)C3)nc(C3CCCCC3)c2nc1C` [Example 247, 4-cyclohexyl-2-((2R,4S)-2-(1-cyclopropyl-1H-pyrazol-4-yl)tetrahydro-2H-pyran-4-yl)-6,7-dimethylpteridine], the EC50 under setting [2] was below 50 nM.

Under setting [1], `COCn1cc([C@H]2CN(c3nc(-c4ccc(F)cc4F)c4cc(C)c(C)nc4n3)C[C@@H](C)O2)cn1` [Example I-1226, (2S,6R)-4-[4-(2,4-difluorophenyl)-6,7-dimethyl-pyrido[2,3-d]pyrimidin-2-yl]-2-[1-(methoxymethyl)pyrazol-4-yl]-6-methyl-morpholine] registered a half-maximal effective concentration (EC50) below 50 nM.

For `Cc1nc2cc([C@H]3CCO[C@@H](c4cnn(C5CC5)c4)C3)nc(-c3ccc(F)cc3F)c2nc1C(F)F` [Example I-1552, 7-((2R,4S)-2-(1-cyclopropyl-1H-pyrazol-4-yl)tetrahydro-2H-pyran-4-yl)-3-(difluoromethyl)-5-(2,4-difluorophenyl)-2-methylpyrido[3,4-b]pyrazine], under setting [1], the concentration for a half-maximal effect (EC50) was below 50 nM.

Under setting [2], `Cc1nc2nc(N3CCO[C@H](c4cnn(C5CC5)c4)C3)nc(-c3ccc4c(c3)CC4)c2nc1C` [Example 242, (R)-4-(4-(bicyclo[4.2.0]octa-1,3,5-trien-3-yl)-6,7-dimethylpteridin-2-yl)-2-(1-cyclopropyl-1H-pyrazol-4-yl)morpholine] yielded an EC50 below 50 nM.

Regarding `Cc1nc2nc(N3C[C@@H](C)O[C@@H](c4cnn(C5CC5)c4)C3)nc(-c3ccc4c(c3F)CCC4(F)F)c2nc1C` [Example I-1485, (2S,6R)-2-(1-cyclopropylpyrazol-4-yl)-4-[6,7-dimethyl-4-(1,1,4-trifluoroindan-5-yl)pteridin-2-yl]-6-methyl-morpholine], under setting [1], the EC50 is below 50 nM.

`[2H]C1([2H])C[C@H](c2nc(-c3ccc(F)cc3F)c3nc(C)c(C)nc3n2)C[C@]([2H])(c2cnn(C3CC3)c2)O1` [Example 190, 2-((2R,4S)-2-(1-cyclopropyl-1H-pyrazol-4-yl)tetrahydro-2H-pyran-4-yl-2,6,6-d3)-4-(2,4-difluorophenyl)-6,7-dimethylpteridine] came in with a concentration giving a half-maximal response (EC50) under setting [2] below 50 nM.

As usually defined, the EC50 is the concentration at which the effect is half-maximal.
